PMC3528769, “Comparative Study of the Fatty Acid Binding Process of a New FABP from Cherax quadricarinatus by Fluorescence Intensity, Lifetime and Anisotropy” (PLoS ONE, 2012)

What was measured:
Format in all cases: binding
Cq-FABP [1] = biological target: T1, Cq-FABP (Cherax quadricarinatus, UniProt L0I6Z9); experiment: ANS fluorescence intensity titration and equilibrium displacement of ANS by fatty acids; conditions: calculated from equilibrium displacement experiments using the fluorescence intensity of ANS (Eq. 1); read-out: Kd,FA
T1 sequence (L0I6Z9 entry or part of it): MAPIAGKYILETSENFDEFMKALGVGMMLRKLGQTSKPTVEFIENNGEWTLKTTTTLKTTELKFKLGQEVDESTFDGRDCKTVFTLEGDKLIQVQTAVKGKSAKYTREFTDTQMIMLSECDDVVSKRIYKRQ
Protocol: (§1) Fluorescence emission spectra were measured at 25°C on a Cary-Eclipse spectrofluorimeter (Varian, CA, USA) equipped with a thermostated cell holder, using solutions (70 µl) placed in microcuvettes (pathlength, 0.3 cm). The binding of non-fluorescent fatty acids (PA, OA, LA, EPA and DHA) to Cq-FABP was measured indirectly by equilibrium displacement experiments using ANS as a fluorescent probe, either by measuring the fluorescence emission of ANS or by measuring the FRET between tryptophan and ANS, resulting in the quenching of donor fluorescence. The excitation wavelength was then set at 296 or 350 nm for tryptophan or ANS, respectively; the slit widths and PMT voltage were adjusted to optimize the fluorescence signal at 25°C. For titration experiments, the fluorescence emission spectrum of tryptophan or ANS was measured and the integrated fluorescence signal of tryptophan (315–360 nm) or ANS (440–600 nm) was calculated. For samples containing high concentrations of ANS, the inner-filter effect was not negligible and was corrected. UV-visible absorption spectra were carried out on a Uvikon XL spectrophotometer.
The equilibrium dissociation constant (Kd,FA) relative to the binding of fatty acids (FA) to Cq-FABP was determined by competition experiments using ANS displacement and linear regression of the following relationship: [drawing 1] (1) where Kd,ANS is the dissociation constant relative to the binding of ANS to the fatty acid binding site, Kd ^app ,ANS is the apparent dissociation constant of ANS obtained in the presence of a given fatty acid concentration.

Cq-FABP [2] = biological target: T1, Cq-FABP; experiment: Steady-state FRET between the single Trp (W49) and ANS, Trp quenching and recovery by PA; conditions: read-out: Kd,PA
Protocol: as §1

Cq-FABP [3] = biological target: T1, Cq-FABP; experiment: cis-Parinaric acid fluorescence intensity titration and competitive displacement; conditions: calculated from the IC50 values (Eq. 2) using the fluorescence intensity of cis-parinaric acid; 7 µM CPA, 5 µM Cq-FABP; read-out: Kd,FA
Description: Cis-parinaric acid and DAUDA were characterized by fluorescence emission in the 380–500 nm region (λmax,em: 410 nm) and in the 480–650 nm region (λmax,em: 540 nm), respectively (excitation wavelengths were set at 320 or 335 nm for cis-parinaric acid or DAUDA, respectively). The fluorescence intensity enhancement upon binding to Cq-FABP was monitored on a Cary-Eclipse spectrofluorimeter as indicated above. All the fluorescence emission intensities were corrected for the inner-filter effect. The emission intensity of a given fluorophore in the presence of Cq-FABP was also systematically corrected for the emission intensity of the free fluorophore. The calculation of Kd,FA was performed by measuring the IC50 value (inhibition concentration 50%) characterizing each non-fluorescent FA. As DAUDA poorly binds to Cq-FABP (see results section), only cis-parinaric acid (CPA) was used for measuring IC50 values. Titration and equilibrium displacement experiments using CPA were performed in buffer C (supplemented with 10% DMSO (v/v)). For the determination of IC50 values, the number of complexes corresponding to [CPA] = 7 µM and [Cq-FABP] = 5 µM was varied by increasing the concentration of non-fluorescent FA. The IC50 value corresponds to the concentration of non-fluorescent FA that displaces 50% of CPA from the fatty acid binding site of Cq-FABP and is related to Kd,FA through the Cheng-Prusoff relationship: [drawing 2] (2)

Cq-FABP [4] = biological target: T1, Cq-FABP; experiment: BODIPY-C16 steady-state fluorescence anisotropy titration and competition; conditions: for Kd: read-out: Kd,FA
Protocol: The binding of 4,4-difluoro-5, 7-dimethyl-4-bora-3a, 4a-diaza-s-indacene-3-hexadecanoic acid (BODIPY-C16) to Cq-FABP was investigated by measuring the steady-state fluorescence anisotropy parameter using a Beacon instrument (PanVera, Madison, USA), in a cell thermostatically held at 25°C. The excitation and emission bandpass filters were centered at 488 nm (±6 nm) and 525 nm (±15 nm), respectively. Titration experiments were performed in buffer C (supplemented with 10% DMSO (v/v)) by maintening a constant concentration of BODIPY-C16 (200 nM) and by adding increasing concentrations of Cq-FABP. Using a vertical direction for the polarized excitation source, the steady-state fluorescence anisotropy (r) was calculated according to: [drawing 3] (3) where IV and IH correspond to the parallel (vertical) and perpendicular (horizontal) fluorescence emission intensity components, respectively. The fraction of BODIPY-C16/Cq-FABP complexes (i.e. the fraction of BODIPY-C16 bound to Cq-FABP), fb, was calculated using the following relationship: [drawing 4] (4) where r is the measured fluorescence anisotropy value, rf and rb correspond to the fluorescence anisotropy values of free BODIPY-C16 (ligand in the free state, measured in the absence of Cq-FABP) and Cq-FABP-bound BODIPY-C16 (ligand in the bound state, corresponding to the maximum anisotropy value found at the plateau), respectively. […] The Kd characterizing the BODIPY-C16/Cq-FABP complex (Kd,C16) was calculated by fitting the plot of fb versus [Cq-FABP] using the Graphpad Prism 5.0 software.
The fluorescence anisotropy-based assay was also used in competition experiments to calculate the Kd values (Kd,FA) characterizing non-fluorescent fatty acids. The measurement of the apparent Kd value characterizing the BODIPY-C16/Cq-FABP complex (Kd ^app ,C16) under different concentration conditions for the non-fluorescent FA allows the calculation of Kd,FA according to: [drawing 5] (5) where Kd,C16 corresponds to the Kd characterizing the BODIPY-C16/Cq-FABP complex (in the absence of any non-fluorescent FA) and Kd ^app ,C16 corresponds to the apparent dissociation constant obtained for a given concentration of non-fluorescent FA. The calculation of Kd,FA was also performed in an independent manner by measuring the IC50 value characterizing each non-fluorescent FA. In this approach, the number of complexes corresponding to [C16] = 200 nM and [Cq-FABP] = 5 µM was varied by increasing the concentration of non-fluorescent FA. The IC50 value corresponds to the concentration of non-fluorescent FA that displaces 50% of C16 from the fatty acid binding site of Cq-FABP and is related to Kd,FA through the Cheng-Prusoff relationship: [drawing 6] (6)

Compound: CCCCCCCCCCCCCCCC(=O)O [PA, Palmitic acid]
- Kd (Cq-FABP [1]): 1100 ± 300 nM
- Kd (Cq-FABP [2]; FRET efficiency parameter, from slope of Kd app,PA versus [ANS] (Fig. 5B), average Kd,ANS 27.85 µM): 830 nM
- Kd (Cq-FABP [2]; FRET efficiency parameter, y-intercept of Kd app,PA versus [ANS] (Fig. 5B)): 1900 nM
- Kd (Cq-FABP [2]; Trp fluorescence intensity parameter, from slope of Kd app,PA versus [ANS] (Fig. 5A), average Kd,ANS 27.85 µM): 1290 nM
- Kd (Cq-FABP [2]; Trp fluorescence intensity parameter, y-intercept of Kd app,PA versus [ANS] (Fig. 5A)): 1470 nM
- Kd (Cq-FABP [3]): 1800 ± 400 nM
- IC50 (Cq-FABP [4]; 200 nM BODIPY-C16, 5 µM Cq-FABP, read-out: IC50 (displaces 50% of BODIPY-C16 from the fatty acid binding site)): 1170 nM
- Kd (Cq-FABP [4]; calculated from the IC50 values, using Eq. 6, 200 nM BODIPY-C16, 5 µM Cq-FABP): 1150 ± 200 nM
- Kd (Cq-FABP [4]; calculated from the Kd app,C16 values, using Eq. 5, 200 nM BODIPY-C16): 1600 ± 300 nM
